Source: US20250179062A1, “CRYSTALLINE FORMS OF A PYRROLOPYRIDINE-ANILINE COMPOUND” (NFLECTION THERAPEUTICS, INC., priority 2021, published 2025)
“Also recorded” adds a separate entry of the source. Read-outs that look alike come from different tables or passages of the source. Each block holds one molecule with its values, some of them ahead of it.

Tests used:
[1] = Approximate solubility, visually estimated by solvent aliquot addition; format: physicochemical; conditions: ambient temperature; for solubility: thermodynamic from solid
Description: A lot of the compound of formula (I) containing a mixture of Forms A and B was used for this study. Measured aliquots of a variety of solvents were added to weighed amounts of the material with sonication until the solution appeared clear or the maximum volume of the vial was reached. Solubility was calculated based on the total solvent used to give a solution. […] Values are rounded to the nearest whole number. […] If dissolution occurred as determined by the visual assessment after the addition of the first aliquot, the value is reported as “>”.

[2] = Dynamic vapor sorption (DVS); format: physicochemical
Description: Automated vapor sorption (VS) data were collected on a Surface Measurement System DVS Intrinsic instrument. Samples were not dried prior to analysis. Sorption and desorption data were collected over a range from 5% to 95% RH at 10% RH increments under a nitrogen purge. The equilibrium criterion used for analysis was less than 0.0100% weight change in 5 minutes with a maximum equilibration time of 3 hours. Data were not corrected for the initial moisture content of the samples. Post-analysis sample was submitted for XRPD analysis.

[3] = Physical stability of crystalline forms (XRPD after stress); format: physicochemical
Description: Physical stability of Form A was investigated.
Physical stability of Form F was investigated.
Physical stability of Form B was investigated.
Physical stability of Form C was investigated.
Because the solids of Form H were originally isolated damp with excess MeOH (see Example 7), an attempt to remove the excess solvent under vacuum (i.e., room temperature for 2 days) was performed.

[4] = Binary competitive interconversion slurry experiments; format: physicochemical; conditions: between room temperature and 50° C.
Description: Alternatively, interconversion experiments were performed to determine the thermodynamic relationship between polymorphs. […] Clarendon Press, Oxford, 2006; and Polymorphism in Pharmaceutical Solids. Brittain, Harry G. ed. Marcek Dekker, Inc. New York. 1999]. […] The choice of solvent affects the kinetics of polymorph conversion and not the thermodynamic relationship between polymorphic forms [Gu, C H., Young, V. Jr., Grant, D J. J. Pharm. Sci. 2001, 90 (11): 1878-1890].
Slurries were prepared at ambient and 50° C. using binary mixtures of Forms A/F, A/E, and E/F. Saturated solutions of the compound of formula (I) were generated in EtOAc or ACN at RT or 50° C. The solutions were filtered and approximately equivalent quantities of two of the polymorphs were added to the solutions. The samples were slurried for several days at the given temperature and the solids were collected by positive pressure filtration, or centrifugation/decantation. The solids were harvested and analyzed by an XRPD.

[5] = Physical stability of crystalline forms (XRPD after stress); format: physicochemical; conditions: higher temperature (e.g., 178° C.)
[6] = clinical trials, systemic MEK inhibitor; cited from earlier work
[7] = 90% RH at ambient temperature over 7 days

solubility ([1]; aqueous with cosolvent or surfactant or cyclodextrin, 1:1 THF/H2O (v/v) (aw = 1.04), lot containing mixture of Forms A and B, read-out: Solubility): 11 mg/mL
solubility ([1]; aqueous with cosolvent or surfactant or cyclodextrin, 3:1 acetone/H2O (v/v) (aw = 0.85), lot containing mixture of Forms A and B, read-out: Solubility): 5 mg/mL
Solubility term ([1]; in heptane, H2O, and toluene): low solubility
solubility ([1]; organic solvent or mixture, ACN, lot containing mixture of Forms A and B, read-out: Solubility): 2 mg/mL
solubility ([1]; organic solvent or mixture, DCM, lot containing mixture of Forms A and B, read-out: Solubility): 6 mg/mL
solubility ([1]; organic solvent or mixture, EtOAc, lot containing mixture of Forms A and B, read-out: Solubility): 3 mg/mL
solubility ([1]; organic solvent or mixture, EtOH, lot containing mixture of Forms A and B, read-out: Solubility): 3 mg/mL
solubility ([1]; organic solvent or mixture, MeOH, lot containing mixture of Forms A and B, read-out: Solubility): 11 mg/mL
solubility ([1]; organic solvent or mixture, THF, lot containing mixture of Forms A and B, read-out: Solubility): 29 mg/mL
solubility ([1]; organic solvent or mixture, acetone, lot containing mixture of Forms A and B, read-out: Solubility): 8 mg/mL
solubility ([1]; organic solvent or mixture, heptane, lot containing mixture of Forms A and B, read-out: Solubility): < 1 mg/mL
solubility ([1]; organic solvent or mixture, in acetone, ACN, DCM, EtOAc, EtOH, MeOH, 3:1 v/v acetone/H2O, and 1:1 v/v THF/H2O, read-out: Solubility term): 1 to 20 mg/mL
solubility ([1]; organic solvent or mixture, toluene, lot containing mixture of Forms A and B, read-out: Solubility): < 1 mg/mL
solubility ([1]; water, H2O, lot containing mixture of Forms A and B, read-out: Solubility): < 1 mg/mL
Structure (SMILES): Cn1c(Nc2ccc(I)cc2F)c(C(=O)NOCCO)c2cccnc21 [Compound of Formula (I)]

Hygroscopicity term ([2]; 5-95% RH): limited hygroscopicity
post-DVS XRPD form ([2]; solid after DVS cycle): Form A
Physical stability [3, 7]: stable
Physical stability ([3]; one (1) day at ambient temperature under vacuum): stable
Structure (SMILES): Cn1c(Nc2ccc(I)cc2F)c(C(=O)NOCCO)c2cccnc21 [Form A]
Relative thermodynamic stability of anhydrous forms [4]: most thermodynamically stable form; also recorded: more stable relative to Form E or F

Physical stability ([3]; under vacuum at ambient temperature over 2 days): stable
Structure (SMILES): Cn1c(Nc2ccc(I)cc2F)c(C(=O)NOCCO)c2cccnc21 [Form B]
Physical stability ([3]; exposure to 45° C. (elevated temperature) under vacuum): disordered; also recorded: slightly disordered XRPD pattern with additional unidentified peaks
Form conversion by in situ variable temperature XRPD (vtXRPD) [5]: converts/crystallizes to anhydrous Form E

Physical stability ([3]; about 42° C. for one day or about 45° C. for three days, under vacuum): slightly disordered
Structure (SMILES): Cn1c(Nc2ccc(I)cc2F)c(C(=O)NOCCO)c2cccnc21 [Form C]

Structure (SMILES): Cn1c(Nc2ccc(I)cc2F)c(C(=O)NOCCO)c2cccnc21 [Form E]
Relative thermodynamic stability of anhydrous forms [4]: more thermodynamically stable than Form F but less stable than Form A; also recorded: more stable relative to Form F

Physical stability [3, 7]: stable
Physical stability ([3]; under vacuum at room temperature for 5 days): stable
Relative thermodynamic stability of anhydrous forms [4]: least thermodynamically stable form
Structure (SMILES): Cn1c(Nc2ccc(I)cc2F)c(C(=O)NOCCO)c2cccnc21 [Form F]

Physical stability ([3]; under vacuum, room temperature for 2 days, damp solids with excess MeOH): disordered mixture of Form H and Form A
Structure (SMILES): Cn1c(Nc2ccc(I)cc2F)c(C(=O)NOCCO)c2cccnc21 [Form H]

Structure (SMILES): O=C(NOC[C@H](O)CO)c1ccc(F)c(F)c1Nc1ccc(I)cc1F [PD0325901]
Side effects [6]: one or more neurological side effects associated with ataxia, confusion, and syncope; also recorded: neurological side effects associated with ataxia, confusion, and syncope
